We go through 18 compounds from patent publication US11685719B2, “Pyridinone MK2 inhibitors and uses thereof” (Xinthera, Inc., priority 2021, dated 2023).

In one experiment the target is p38a/PRAK (Homo sapiens (Human), UniProt Q16539). The experiment is described as follows: biochemical. To be noted: 10-point 1:3 dilution, top dose 300 μM; 10 μM ATP, 2 h incubation; read-out: p38a/PRAK Enzyme pIC50 (converted). As for the experimental part:
(§1) Expression vectors of the recombinant MK2 and PRAK kinases were constructed by cloning of the codon optimized gene sequences of MK2 (Uniprot ID P49137, amino acid fragment F46-H400), or PRAK (Uniprot ID Q81W41, amino acid fragment M1-Q471) into pGEX-4T1 (GE) for over expression of these kinases with N-terminal GST-tag. Protein expression was carried out in E. coli BL21 by growing the hosts in TB medium, induction of protein expression with 0.5 mM IPTG at approximate 0.8 OD600, and incubation of the cultures at 18° C. for 14-20 hours afterwards. The harvested cells were resuspended in […] of Lysis buffer (50 mM Tris-HCl, pH 8.0, 500 mM NaCl, 1 mM DTT, 5% glycerol, and 1 mM PMSF) per gram of wet cell mass and homogenized at 4° C. in a microfluidizer (ATS, Suzhou, China) at 14,000 psi pressure, 3 passes. The cell lysates were clarified by centrifugation and the supernatants containing the GST-fusion proteins were purified by affinity chromatography using GSH-Sepharose (GE) gravity flow columns pre-equilibrated in Buffer A (50 mM Tris-HCl, pH 8.0, 500 mM NaCl, 1 mM DTT, and 5% glycerol). After thorough washing of the columns with Buffer A, the bound GST-proteins were eluted by Buffer B (50 mM Tris, pH 8.0, 500 mM NaCl, 1 mM DTT, 5% glycerol, 10 mM glutathione), followed by size-exclusion purification on Superdex 200 column equilibrated in Buffer A. The purified proteins were concentrated to approximately 1 mg/ml and stored at −80° C.
(§2) This study evaluates the inhibitory potency of invention compound on p38/MK2 pathway vs p38/PRAK pathway. More specially the compound concentration (IC50) was determined that inhibited half of the maximal activation of MK2 or PRAK by p38. MK2 activation study was set up without or with a serial of 10-point 1:3 dilution of invention compound at top dose of 1 or 10 μM, and PRAK activation study was set up without or with a serial of 10-point 1:3 dilution of invention compound at top dose of 300 μM. The MIK2 and PRAK activity were determined by the phosphorylation level of HSP27 peptide conjugated with FITC.

The next experiment addresses p38a/MK2 (Homo sapiens (Human), UniProt P49137+Q16539). The experiment is described as follows: biochemical. The following applies: 10-point 1:3 dilution, 10 μM ATP, 2 h incubation. The protocol:
as §1, §2

The mark [1] stands for this setting: top dose 1 μM, read-out: p38a/MK2 (1 μM) Enzyme pIC50 (converted).

Where two headings read alike, the source gives them in different places. Where only a bound is given, the exact number is not on record here.

Sequence of p38a/PRAK (Q16539 whole entry, the tested form may be a part): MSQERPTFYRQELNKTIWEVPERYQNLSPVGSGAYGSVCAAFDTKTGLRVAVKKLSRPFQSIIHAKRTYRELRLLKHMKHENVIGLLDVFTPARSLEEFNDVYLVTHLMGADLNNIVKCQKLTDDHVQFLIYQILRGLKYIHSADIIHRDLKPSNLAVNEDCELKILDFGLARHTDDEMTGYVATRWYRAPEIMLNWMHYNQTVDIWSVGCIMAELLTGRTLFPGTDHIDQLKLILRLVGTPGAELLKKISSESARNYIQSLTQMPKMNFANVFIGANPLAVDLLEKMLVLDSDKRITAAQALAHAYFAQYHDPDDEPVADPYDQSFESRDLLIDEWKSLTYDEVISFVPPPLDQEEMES
Sequence of p38a/MK2 (Q16539 whole entry): as the sequence (Q16539 whole entry, the tested form may be a part) above
Sequence of p38a/MK2 (P49137 46-400): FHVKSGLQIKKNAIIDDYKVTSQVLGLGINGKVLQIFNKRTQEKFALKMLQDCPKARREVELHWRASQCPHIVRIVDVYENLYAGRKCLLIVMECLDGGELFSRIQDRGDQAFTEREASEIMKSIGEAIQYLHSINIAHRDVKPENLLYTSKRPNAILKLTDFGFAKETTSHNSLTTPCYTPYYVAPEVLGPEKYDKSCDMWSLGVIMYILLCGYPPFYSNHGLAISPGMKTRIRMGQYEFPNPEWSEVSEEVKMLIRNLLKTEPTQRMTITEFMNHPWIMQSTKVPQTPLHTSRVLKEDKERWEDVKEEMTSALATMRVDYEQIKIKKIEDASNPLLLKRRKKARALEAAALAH

With `CCOC(=O)C(C)(C)n1nc(-c2cc(-n3c(C)cc(OCc4ncc(F)cc4F)c(Cl)c3=O)c(C)cn2)ccc1=O` (atropisomer, axis not shown) [Example 6, ethyl 2-(3-{3-chloro-4-[(3,5-difluoropyridin-2-yl)methoxy]-5′,6-dimethyl-2-oxo-[1,4′-bipyridin]-2′-yl}-6-oxopyridazin-1-yl)-2-methylpropanoate], the IC50 at p38a/PRAK is 6310 nM; at p38a/MK2 (setting [1]) it was 20 nM.
For `[2H]C([2H])(Oc1cc(C)n(-c2cc(-n3cccc(C(C)(C)O)c3=O)ncc2C)c(=O)c1Cl)c1ncc(F)cc1Cl` (single isomer, unassigned) [Example 23A, rel-4′-{3-chloro-4-[(3-chloro-5-fluoropyridin-2-yl)(2H2)methoxy]-6-methyl-2-oxopyridin-1-yl}-3-(2-hydroxypropan-2-yl)-5′-methyl-[1,2′-bipyridin]-2-one], in that order: 6310 nM and 2.51 nM.
For the compound `[2H]C([2H])(Oc1cc(C)n(-c2cc(-n3ccnc(C(C)(C)O)c3=O)ncc2C)c(=O)c1Cl)c1ncc(F)cc1F` (single isomer, unassigned) [Example 19A, rel-3-chloro-4-((3,5-difluoropyridin-2-yl)methoxy-d2)-2′-(3-(2-hydroxypropan-2-yl)-2-oxopyrazin-1(2H)-yl)-5′,6-dimethyl-2H-[1,4′-bipyridin]-2-one], the IC50 at p38a/PRAK is 1580 nM; at p38a/MK2 (setting [1]), 1 nM.
For `Cc1cnc(-n2cccc([C@@](C)(O)C3CC3)c2=O)cc1-n1c(C)cc(OCc2ncc(F)cc2F)c(Cl)c1=O` (single isomer, unassigned) [Example 14B, rel-3-chloro-2′-[3-(1-cyclopropyl-1-hydroxyethyl)-2-oxopyridin-1-yl]-4-[(3,5-difluoropyridin-2-yl)methoxy]-5′,6-dimethyl-[1,4′-bipyridin]-2-one] the same measures were 3160 nM and 1.26 nM.
For `Cc1cnc(-n2cccc([C@](C)(O)C3CC3)c2=O)cc1-n1c(C)cc(OCc2ncc(F)cc2F)c(Cl)c1=O` (single isomer, unassigned) [Example 14A, rel-3-chloro-2′-[3-(1-cyclopropyl-1-hydroxyethyl)-2-oxopyridin-1-yl]-4-[(3,5-difluoropyridin-2-yl)methoxy]-5′,6-dimethyl-[1,4′-bipyridin]-2-one], in that order: 3160 nM and 1.58 nM.
Regarding `Cc1cnc(-n2cccc(C(C)(C)O)c2=O)cc1-n1c(C)cc(OCc2ncc(F)cc2F)c(Cl)c1=O` (single isomer, unassigned) [Example 1A, rel-3-chloro-4-[(3,5-difluoropyridin-2-yl)methoxy]-2′-[3-(2-hydroxypropan-2-yl)-2-oxopyridin-1-yl]-5′,6-dimethyl-[1,4′-bipyridin]-2-one], the IC50 at p38a/PRAK is 3160 nM; on p38a/MK2 (setting [1]) it was 2 nM; on p38a/MK2 (top dose 10 μM, read-out: p38a/MK2 (10 μM) Enzyme pIC50 (converted)), 3.16 nM.
In the case of `Cc1cnc(-n2cccc([C@](C)(O)C3CC3)c2=O)cc1-n1c(C)cc(OCc2ncc(F)cc2F)c(Cl)c1=O` (single isomer, unassigned) [Example 14C, rel-3-chloro-2′-[3-(1-cyclopropyl-1-hydroxyethyl)-2-oxopyridin-1-yl]-4-[(3,5-difluoropyridin-2-yl)methoxy]-5′,6-dimethyl-[1,4′-bipyridin]-2-one], the IC50 was above 316000 nM on p38a/PRAK and above 1000 nM at p38a/MK2 (setting [1]).
For `[2H]C([2H])(Oc1cc(C)n(-c2cc(-n3ccnc(C(C)(C)O)c3=O)ncc2C)c(=O)c1Cl)c1ncc(Cl)cc1F` (single isomer, unassigned) [Example 20B, rel-3-chloro-4-((5-chloro-3-fluoropyridin-2-yl)methoxy-d2)-2′-(3-(2-hydroxypropan-2-yl)-2-oxopyrazin-1(2H)-yl)-5′,6-dimethyl-2H-[1,4′-bipyridin]-2-one] the same measures were above 316000 nM and 316 nM.
With `COCc1cc(OCc2ncc(F)cc2F)c(Cl)c(=O)n1-c1cc(-n2cccc(C(C)(C)O)c2=O)ncc1C` (single isomer, unassigned) [Example 3A, rel-3-chloro-4-[(3,5-difluoropyridin-2-yl)methoxy]-2′-[3-(2-hydroxypropan-2-yl)-2-oxopyridin-1-yl]-6-(methoxymethyl)-5′-methyl-[1,4′-bipyridin]-2-one], the IC50 on p38a/PRAK was 5010 nM; at p38a/MK2 (setting [1]), 6.31 nM.
For the compound `Cc1ccc(-n2cccc(C(C)(C)O)c2=O)cc1-n1c(C)cc(OCc2ncc(F)cc2F)c(Cl)c1=O` (single isomer, unassigned) [Example 2B, rel-3-chloro-4-[(3,5-difluoropyridin-2-yl)methoxy]-1-{5-[3-(2-hydroxypropan-2-yl)-2-oxopyridin-1-yl]-2-methylphenyl}-6-methylpyridin-2-one], the results for the IC50 on p38a/PRAK and at p38a/MK2 (setting [1]) were above 316000 nM and above 1000 nM, respectively.
For `Cc1ccc(-n2cccc(C(C)(C)O)c2=O)cc1-n1c(C)cc(OCc2ncc(F)cc2F)c(Cl)c1=O` (single isomer, unassigned) [Example 2A, rel-3-chloro-4-[(3,5-difluoropyridin-2-yl)methoxy]-1-{5-[3-(2-hydroxypropan-2-yl)-2-oxopyridin-1-yl]-2-methylphenyl}-6-methylpyridin-2-one] the same measures were 1260 nM and 3.98 nM.
For `[2H]C([2H])(Oc1cc(C)n(-c2cc(-n3ccnc(C(C)(C)O)c3=O)ncc2C)c(=O)c1Cl)c1ncc(Cl)cc1F` (single isomer, unassigned) [Example 20A, rel-3-chloro-4-((5-chloro-3-fluoropyridin-2-yl)methoxy-d2)-2′-(3-(2-hydroxypropan-2-yl)-2-oxopyrazin-1(2H)-yl)-5′,6-dimethyl-2H-[1,4′-bipyridin]-2-one] the same measures were 3160 nM and 1 nM.
For `Cc1cnc(-n2nccc(C(C)(C)O)c2=O)cc1-n1c(C)cc(OCc2ncc(F)cc2F)c(Cl)c1=O` (single isomer, unassigned) [Example 9A, rel-3-chloro-4-[(3,5-difluoropyridin-2-yl)methoxy]-2′-[5-(2-hydroxypropan-2-yl)-6-oxopyridazin-1-yl]-5′,6-dimethyl-[1,4′-bipyridin]-2-one], in that order: 2000 nM and 12.6 nM.
Turning to `Cc1cnc(-n2cccc(C3(O)CCC3)c2=O)cc1-n1c(C)cc(OCc2ncc(F)cc2F)c(Cl)c1=O` (single isomer, unassigned) [Example 12B, rel-3-chloro-4-[(3,5-difluoropyridin-2-yl)methoxy]-2′-[3-(1-hydroxycyclobutyl)-2-oxopyridin-1-yl]-5′,6-dimethyl-[1,4′-bipyridin]-2-one], the values for the IC50 at p38a/PRAK and on p38a/MK2 (setting [1]) were above 316000 nM and above 1000 nM, respectively.
For `Cc1cnc(-n2cncc(C(C)(C)O)c2=O)cc1-n1c(C)cc(OCc2ncc(F)cc2F)c(Cl)c1=O` (single isomer, unassigned) [Example 10B, rel-3-chloro-4-[(3,5-difluoropyridin-2-yl)methoxy]-2′-[5-(2-hydroxypropan-2-yl)-6-oxopyrimidin-1-yl]-5′,6-dimethyl-[1,4′-bipyridin]-2-one], in that order: above 316000 nM and above 1000 nM.
For `Cc1cnc(-n2cccc(C(C)(C)O)c2=O)cc1-n1c(C)nc(OCc2ncc(F)cc2F)c(Cl)c1=O` (single isomer, unassigned) [Example 25A, rel-4′-{5-chloro-4-[(3,5-difluoropyridin-2-yl)methoxy]-2-methyl-6-oxopyrimidin-1-yl}-3-(2-hydroxypropan-2-yl)-5′-methyl-[1,2′-bipyridin]-2-one], in that order: 6310 nM and 3.98 nM.
In the case of `Cc1cnc(-n2ccnc(C(C)(C)O)c2=O)cc1-n1c(C)cc(OCc2ncc(F)cc2Cl)c(Cl)c1=O` (single isomer, unassigned) [Example 24A, rel-3-chloro-4-[(3-chloro-5-fluoropyridin-2-yl)methoxy]-2′-[3-(2-hydroxypropan-2-yl)-2-oxopyrazin-1-yl]-5′,6-dimethyl-[1,4′-bipyridin]-2-one], the IC50 on p38a/PRAK is above 316000 nM; at p38a/MK2 (setting [1]), above 1000 nM.
For `Cc1cnc(-n2cccc(C(C)(C)CO)c2=O)cc1-n1c(C)cc(OCc2ncc(F)cc2F)c(Cl)c1=O` (single isomer, unassigned) [Example 11A, rel-3-chloro-4-[(3,5-difluoropyridin-2-yl)methoxy]-2′-[3-(1-hydroxy-2-methylpropan-2-yl)-2-oxopyridin-1-yl]-5′,6-dimethyl-[1,4′-bipyridin]-2-one], in that order: 5010 nM and 3.98 nM.
